Literature values, collected in patent publication US9066956B2, “Vaginal ring comprising DHEA or DHEA sulfate and optionally a release-modulating agent of the active principle, useful to increase the ovarian reserve in women and to relieve symptoms associated with menopause” (Universidad de Chile, priority 2011, dated 2015).
Like-named read-outs stand apart in the source and are kept apart here.

Legend:
[1] = system: infertile women with diminished ovarian reserve; details: versus national U.S. IVF rates 2004

Compound	clinical pregnancies (women; oral DHEA 75 mg daily up to four months before IVF, control group 11%) [%]	rate of spontaneous abortions (women; oral DHEA 75 mg daily, control group 36%) [%]	increase of clinical pregnancy (women; oral DHEA versus control group)	Reduction of spontaneous abortions ([1]; first fertility center (U.S.)) [%]	Reduction of spontaneous abortions ([1]; second fertility center (Canada)) [%]	DHEA metabolized back to DHEA-S (by sulfatase hydroxysteroid) [%]	daily production of DHEA-S converted to DHEA (women) [%]
C[C@]12CC[C@H](O)CC1=CC[C@@H]1[C@@H]2CC[C@]2(C)C(=O)CC[C@@H]12 [DHEA, dehydroepiandrosterone]	28	20	at least 150%	15.0	15.2	13	–
dehydroepiandrosterone sulphate [DHEA-S]	–	–	–	–	–	–	64
